Measurements from patent US20140309210A1, “INDAZOLE COMPOUNDS, COMPOSITIONS AND METHODS OF USE THEREOF” (Genentech, Inc., priority 2011, published 2014).

target: T1, purified ITK (Invitrogen PV3875) (Homo sapiens, UniProt Q08881); assay: ITK peptide phosphorylation assay (Caliper LabChip or LCMS); type: biochemical; conditions: Table 2, Examples 1-140, class symbols
T1 construct: purchased Invitrogen PV3875
T1 sequence (Q08881 1-620): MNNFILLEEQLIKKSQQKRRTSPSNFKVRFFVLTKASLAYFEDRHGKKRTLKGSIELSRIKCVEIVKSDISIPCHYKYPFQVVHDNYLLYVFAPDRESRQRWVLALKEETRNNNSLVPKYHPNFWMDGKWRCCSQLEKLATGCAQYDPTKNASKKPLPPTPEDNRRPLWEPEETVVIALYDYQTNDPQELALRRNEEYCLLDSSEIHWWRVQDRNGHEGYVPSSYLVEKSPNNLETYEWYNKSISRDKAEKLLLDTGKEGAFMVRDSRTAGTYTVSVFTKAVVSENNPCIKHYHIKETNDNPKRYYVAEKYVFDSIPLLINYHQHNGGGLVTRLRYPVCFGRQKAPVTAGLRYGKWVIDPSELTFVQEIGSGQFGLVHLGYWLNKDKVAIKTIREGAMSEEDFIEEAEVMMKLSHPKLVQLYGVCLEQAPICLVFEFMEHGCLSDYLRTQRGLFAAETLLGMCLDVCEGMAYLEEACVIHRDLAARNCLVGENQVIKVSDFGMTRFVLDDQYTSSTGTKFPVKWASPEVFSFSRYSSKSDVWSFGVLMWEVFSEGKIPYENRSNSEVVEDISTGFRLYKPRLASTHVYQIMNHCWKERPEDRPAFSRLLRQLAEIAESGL
Experimental: The ability of purified ITK (Invitrogen PV3875) to catalyze peptide phosphorylation is monitored using a Caliper LabChip 3000 microfluidic unit (Caliper assay) or by liquid chromatography-mass spectrometry (LCMS) using a Waters Acquity system (LCMS assay). […] Reactions are quenched by the addition of 2,2′,2″,2′″-(ethane-1,2-diyldinitrilo)tetraacetic acid (50 mM final). Non-phosphorylated substrate and phosphorylated product peptides are separated and quantified using a Caliper LabChip 3000 instrument. […] Reactions are quenched by the addition of trichloroacetic acid (5% v/v final). Non-phosphorylated substrate and phosphorylated product peptides are separated by ultra performance LC and detected by a coupled triple quadrupole MS device applying multiple reaction monitoring (MRM) for quantification. The area of the MRM-extracted mass signal is used to assess the inhibition by test compounds. Equilibrium dissociation constant (Ki) values for ITK inhibitors are calculated from plots of activity vs. inhibitor concentration using Morrison's quadratic equation that accounts for the potential of tight binding, and by also applying the conversion factor that accounts for competitive inhibition and the concentration of ATP used in the assay relative to its apparent Michaelis constant (Km,app).

Compound	Ki [nM]
Nc1ccc(-c2ccc3c(C(=O)Nc4cnn(Cc5cscn5)c4)n[nH]c3c2)cn1 [Example 45, 6-(6-Amino-pyridin-3-yl)-1H-indazole-3-carboxylic acid (1-thiazol-4-ylmethyl-1H-pyrazol-4-yl)-amide]	1 to 100
O=C(O)c1cccc(Cn2cc(NC(=O)c3n[nH]c4cc(-c5cn[nH]c5)ccc34)cn2)c1 [Example 46, 3-(4-{[6-(1H-Pyrazol-4-yl)-1H-indazole-3-carbonyl]-amino}-pyrazol-1-ylmethyl)-benzoic acid]	0.01 to 1
CC(C)(O)c1cccc(Cn2cc(NC(=O)c3n[nH]c4cc(-c5cn[nH]c5)ccc34)cn2)c1 [Example 47, 6-(1H-Pyrazol-4-yl)-1H-indazole-3-carboxylic acid {1-[3-(1-hydroxy-1-methyl-ethyl)-benzyl]-1H-pyrazol-4-yl}-amide]	1 to 100
O=C(Nc1cnn(Cc2cccc(-c3nn[nH]n3)c2)c1)c1n[nH]c2cc(-c3cn[nH]c3)ccc12 [Example 48, 6-(1H-Pyrazol-4-yl)-1H-indazole-3-carboxylic acid {1-[3-(2H-tetrazol-5-yl)-benzyl]-1H-pyrazol-4-yl}-amide]	0.01 to 1
O=C(Nc1cnn(Cc2ccncc2)c1)c1n[nH]c2ccccc12 [Example 52, N-(1-(pyridin-4-ylmethyl)-1H-pyrazol-4-yl)-1H-indazole-3-carboxamide]	1 to 100
Cc1ccc(Cn2cc(NC(=O)c3n[nH]c4ccccc34)cn2)cc1 [Example 53, N-(1-(4-methylbenzyl)-1H-pyrazol-4-yl)-1H-indazole-3-carboxamide]	1 to 100
O=C(Nc1cnn(Cc2cccnc2)c1)c1n[nH]c2ccccc12 [Example 54, N-(1-(pyridin-3-ylmethyl)-1H-pyrazol-4-yl)-1H-indazole-3-carboxamide]	1 to 100
Cc1cccc(Cn2cc(NC(=O)c3n[nH]c4ccccc34)cn2)c1 [Example 55, N-(1-(3-methylbenzyl)-1H-pyrazol-4-yl)-1H-indazole-3-carboxamide]	1 to 100
Cc1ccccc1Cn1cc(NC(=O)c2n[nH]c3ccccc23)cn1 [Example 56, N-(1-(2-methylbenzyl)-1H-pyrazol-4-yl)-1H-indazole-3-carboxamide]	1 to 100
O=C(Nc1cnn(Cc2cc(Cl)cc(Cl)c2)c1)c1n[nH]c2ccccc12 [Example 57, N-(1-(3,5-dichlorobenzyl)-1H-pyrazol-4-yl)-1H-indazole-3-carboxamide]	1 to 100
O=C(Nc1cnn(Cc2ccc(Cl)cc2)c1)c1n[nH]c2ccccc12 [Example 58, N-(1-(4-chlorobenzyl)-1H-pyrazol-4-yl)-1H-indazole-3-carboxamide]	1 to 100
O=C(Nc1cnn(Cc2cccc(C(F)(F)F)c2)c1)c1n[nH]c2ccccc12 [Example 59, N-(1-(3-(trifluoromethyl)benzyl)-1H-pyrazol-4-yl)-1H-indazole-3-carboxamide]	1 to 100
O=C(Nc1cnn(Cc2ccccc2C(F)(F)F)c1)c1n[nH]c2ccccc12 [Example 60, N-(1-(2-(trifluoromethyl)benzyl)-1H-pyrazol-4-yl)-1H-indazole-3-carboxamide]	> 100
O=C(Nc1cnn(Cc2c(Cl)cccc2Cl)c1)c1n[nH]c2ccccc12 [Example 61, N-(1-(2,6-dichlorobenzyl)-1H-pyrazol-4-yl)-1H-indazole-3-carboxamide]	> 100
O=C(Nc1cnn(Cc2ccc(C(F)(F)F)cc2)c1)c1n[nH]c2ccccc12 [Example 62, N-(1-(4-(trifluoromethyl)benzyl)-1H-pyrazol-4-yl)-1H-indazole-3-carboxamide]	1 to 100
O=C(Nc1cnn(Cc2cccc(F)c2)c1)c1n[nH]c2ccccc12 [Example 63, N-(1-(3-fluorobenz)-1H-pyrazol-4-yl)-1H-indazole-3-carboxamide]	1 to 100
COc1ccccc1Cn1cc(NC(=O)c2n[nH]c3ccccc23)cn1 [Example 64, N-(1-(2-methoxybenzyl)-1H-pyrazol-4-yl)-1H-indazole-3-carboxamide]	> 100
O=C(Nc1cnn(Cc2ccccc2F)c1)c1n[nH]c2ccccc12 [Example 65, N-(1-(2-fluorobenzyl)-1H-pyrazol-4-yl)-1H-indazole-3-carboxamide]	1 to 100

Compound	Ki [nM]
COc1ccc(Cn2cc(NC(=O)c3n[nH]c4ccccc34)cn2)cc1 [Example 66, N-(1-(4-methoxybenzyl)-1H-pyrazol-4-yl)-1H-indazole-3-carboxamide]	1 to 100
COc1cccc(Cn2cc(NC(=O)c3n[nH]c4ccccc34)cn2)c1 [Example 67, N-(1-(3-methoxybenzyl)-1H-pyrazol-4-yl)-1H-indazole-3-carboxamide]	1 to 100
O=C(Nc1cnn(Cc2ccc(F)c(F)c2)c1)c1n[nH]c2ccccc12 [Example 68, N-(1-(3,4-difluorobenzyl)-1H-pyrazol-4-yl)-1H-indazole-3-carboxamide]	1 to 100
O=C(Nc1cnn(Cc2cc(F)ccc2F)c1)c1n[nH]c2ccccc12 [Example 69, N-(1-(2,5-difluorobenzyl)-1H-pyrazol-4-yl)-1H-indazole-3-carboxamide]	1 to 100
COc1cc(Cn2cc(NC(=O)c3n[nH]c4ccccc34)cn2)cc(OC)c1 [Example 70, N-(1-(3,5-dimethoxybenzyl)-1H-pyrazol-4-yl)-1H-indazole-3-carboxamide]	1 to 100
O=C(Nc1cnn(Cc2ccc(F)cc2F)c1)c1n[nH]c2ccccc12 [Example 71, N-(1-(2,4-difluorobenzyl)-1H-pyrazol-4-yl)-1H-indazole-3-carboxamide]	1 to 100
O=C(Nc1cnn(Cc2ccc(OC(F)(F)F)cc2)c1)c1n[nH]c2ccccc12 [Example 72, N-(1-(4-(trifluoromethoxy)benzyl)-1H-pyrazol-4-yl)-1H-indazole-3-carboxamide]	> 100
O=C(Nc1cnn(Cc2ccc(Cl)cc2Cl)c1)c1n[nH]c2ccccc12 [Example 73, N-(1-(2,4-dichlorobenzyl)-1H-pyrazol-4-yl)-1H-indazole-3-carboxamide]	> 100
O=C(Nc1cnn(CCCN2CCCC(O)C2)c1)c1n[nH]c2ccccc12 (centres unmarked) [Example 74, N-(1-(3-(3-Hydroxypiperidin-1-yl)propyl)-1H-pyrazol-4-yl)-1H-indazole-3-carboxamide]	> 100
O=C(Nc1cnn(CCN2CCCC(O)C2)c1)c1n[nH]c2ccccc12 (centres unmarked) [Example 75, N-(1-(2-(3-Hydroxypiperidin-1-yl)ethyl)-1H-pyrazol-4-yl)-1H-indazole-3-carboxamide]	> 100
O=C(Nc1cnn(CCCCN2CCCC(O)C2)c1)c1n[nH]c2ccccc12 (centres unmarked) [Example 76, N-(1-(4-(3-Hydroxypiperidin-1-yl)butyl)-1H-pyrazol-4-yl)-1H-indazole-3-carboxamide]	> 100
CC(C)(c1cccc(C#N)c1)n1cc(NC(=O)c2n[nH]c3ccccc23)cn1 [Example 77, N-(1-(2-(3-Cyanophenyl)propan-2-yl)-1H-pyrazol-4-yl)-1H-indazole-3-carboxamide]	> 100
N#Cc1cccc(Cn2cc(NC(=O)c3n[nH]c4ccc(-c5ccccc5)cc34)cn2)c1 [Example 79, N-(1-(3-Cyanobenzyl)-1H-pyrazol-4-yl)-5-phenyl-1H-indazole-3-carboxamide]	> 100
N#Cc1cccc(Cn2cc(NC(=O)c3n[nH]c4ccc(-c5cc[nH]n5)cc34)cn2)c1 [Example 80, N-(1-(3-Cyanobenzyl)-1H-pyrazol-4-yl)-5-(1H-pyrazol-3-yl)-1H-indazole-3-carboxamide]	1 to 100
N#Cc1cccc(Cn2cc(NC(=O)c3n[nH]c4ccc(-c5cn[nH]c5)cc34)cn2)c1 [Example 81, N-(1-(3-Cyanobenzyl)-1H-pyrazol-4-yl)-5-(1H-pyrazol-4-yl)-1H-indazole-3-carboxamide]	1 to 100
N#Cc1cccc(Cn2cc(NC(=O)c3n[nH]c4ccc(CCO)cc34)cn2)c1 [Example 82]	1 to 100
CCn1cc(NC(=O)c2n[nH]c3cc(-c4cn[nH]c4)ccc23)cn1 [Example 83, N-(1-ethyl-1H-pyrazol-4-yl)-6-(1H-pyrazol-4-yl)-1H-indazole-3-carboxamide]	1 to 100
N#Cc1cncc(-c2ccc3c(C(=O)Nc4cnn(Cc5ccccc5)c4)n[nH]c3c2)c1 [Example 84, N-(1-benzyl-1H-pyrazol-4-yl)-6-(5-cyanopyridin-3-yl)-1H-indazole-3-carboxamide]	1 to 100

same assay, conditions: Table 3, specific values for certain examples

Compound	Ki [nM]
O=C(Nc1cnn(Cc2cccnc2)c1)c1n[nH]c2ccccc12 [Example 54, N-(1-(pyridin-3-ylmethyl)-1H-pyrazol-4-yl)-1H-indazole-3-carboxamide]	53.2
O=C(Nc1cnn(Cc2ccc(Cl)cc2)c1)c1n[nH]c2ccccc12 [Example 58, N-(1-(4-chlorobenzyl)-1H-pyrazol-4-yl)-1H-indazole-3-carboxamide]	39.2
COc1ccc(Cn2cc(NC(=O)c3n[nH]c4ccccc34)cn2)cc1 [Example 66, N-(1-(4-methoxybenzyl)-1H-pyrazol-4-yl)-1H-indazole-3-carboxamide]	37.7
O=C(Nc1cnn(CCN2CCCC(O)C2)c1)c1n[nH]c2ccccc12 (centres unmarked) [Example 75, N-(1-(2-(3-Hydroxypiperidin-1-yl)ethyl)-1H-pyrazol-4-yl)-1H-indazole-3-carboxamide]	428
CC(C)(c1cccc(C#N)c1)n1cc(NC(=O)c2n[nH]c3ccccc23)cn1 [Example 77, N-(1-(2-(3-Cyanophenyl)propan-2-yl)-1H-pyrazol-4-yl)-1H-indazole-3-carboxamide]	307
